Columns and labels:
Target C = assay: Gene panel canonical junction qPCR assay, Target C CJ mRNA (Table 7); assay type: cell-based, human; settings: Homo sapiens, read-out: Target C CJ mRNA decrease IC50
Procedure, shortened: (§1)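 IC50 values reflect compound concentration giving 50% reduction in canonical exon–exon junction mRNA. Cell lysates from A673 or K562 treatments were reverse-transcribed and probed by junction-spanning qPCR, normalized to a housekeeper and vehicle, then fitted to a 4-parameter logistic equation.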

HTT [1] = assay: RT-qPCR splicing assay, HTT AJ/CJ mRNA; assay type: cell-based, human; settings: Homo sapiens, 24 h, A673 or K562 cells; for IC50: decrease in canonical junction mRNA; for AC50: increase in alternative junction mRNA
Procedure, shortened: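 Cells: A673 (DMEM/10% FBS) or K562 (IMDM/10% FBS). Dosing: 11-pt 3-fold, top 10 uM final, DMSO ≤0.25%, 24 h, 37° C. Readout: one-step RT-qPCR on lysate, CJ vs AJ isoforms; ΔCt vs housekeeper, ΔΔCt vs DMSO, 2^(−ΔΔCt) RQ → % response.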

HTT [2] = assay: Gene panel canonical junction qPCR assay, HTT CJ mRNA (Table 7); assay type: cell-based, human; settings: Homo sapiens, read-out: HTT CJ mRNA decrease IC50
Procedure, shortened: as §1

SMN2 = assay: Gene panel canonical junction qPCR assay, SMN2 CJ mRNA (Table 7); assay type: cell-based; settings: Homo sapiens, read-out: SMN2 CJ mRNA decrease IC50
Procedure, shortened: as §1

MYB = assay: Gene panel canonical junction qPCR assay, MYB CJ mRNA (Table 7); assay type: cell-based; settings: Homo sapiens, read-out: MYB CJ mRNA decrease IC50
Procedure, shortened: as §1

Molecule `CN(c1ccc2c(n1)OCc1cc(-c3cnc(=O)[nH]c3)ccc1-2)[C@@H]1C[C@H]2CC[C@@H](C1)N2` [Compound 161] has an IC50 (Target C) of over 10 µM, an IC50 (HTT [1]) of over 10 µM and an AC50 (HTT [1]) of over 10 µM. It also gave an IC50 (HTT [2]) of over 10 µM, an IC50 (SMN2) of over 10 µM and an IC50 (MYB) of over 10 µM.
`CN(c1ccc2c(n1)OCc1cc(-c3cc(=O)n(C)cn3)ccc1-2)[C@@H]1C[C@H]2CC[C@@H](C1)N2` [Compound 162] showed an IC50 (Target C) of under 0.1 µM, an IC50 (HTT [1]) of under 0.1 µM and an AC50 (HTT [1]) of under 0.1 µM. For the same molecule, the IC50 (HTT [2]) was under 0.1 µM, the IC50 (SMN2) was under 0.1 µM and the IC50 (MYB) was 0.1 to 1 µM.
In the case of `CN(c1ccc2c(n1)OCc1cc(-n3ccnc3)ccc1-2)[C@@H]1C[C@H]2CC[C@@H](C1)N2` [Compound 163], the IC50 (Target C) is reported as 0.1 to 1 µM, the IC50 (HTT [1]) is reported as under 0.1 µM and the AC50 (HTT [1]) is reported as under 0.1 µM. For the same molecule, the IC50 (HTT [2]) was under 0.1 µM, the IC50 (SMN2) was under 0.1 µM and the IC50 (MYB) was 0.1 to 1 µM.
`Cc1cn(-c2ccc3c(c2)COc2nc(N(C)[C@@H]4C[C@H]5CC[C@@H](C4)N5)ccc2-3)cn1` [Compound 164] was tested, and the IC50 (Target C) was 0.1 to 1 µM, the IC50 (HTT [1]) was under 0.1 µM and the AC50 (HTT [1]) was under 0.1 µM. For the same molecule, the IC50 (HTT [2]) was under 0.1 µM, the IC50 (SMN2) was under 0.1 µM and the IC50 (MYB) was 0.1 to 1 µM.
In the case of `CC1(C)CC(Nc2ccc3c(n2)OCc2cc(-n4cccn4)ccc2-3)CC(C)(C)N1` [Compound 165], the IC50 (Target C) is reported as 0.1 to 1 µM, the IC50 (HTT [1]) is reported as 0.1 to 1 µM and the AC50 (HTT [1]) is reported as 0.1 to 1 µM. The IC50 (HTT [2]) was 0.1 to 1 µM, the IC50 (SMN2) was under 0.1 µM and the IC50 (MYB) was 1 to 10 µM.
For `c1cnn(-c2ccc3c(c2)COc2nc(NC4CNC4)ccc2-3)c1` [Compound 166], the IC50 (Target C) was over 10 µM, the IC50 (HTT [1]) was over 10 µM and the AC50 (HTT [1]) was over 10 µM. The IC50 (HTT [2]) was over 10 µM, the IC50 (SMN2) was 1 to 10 µM and the IC50 (MYB) was over 10 µM.
Work on `Cc1cnc(-c2ccc3c(c2)COc2nc(N(C)[C@@H]4C[C@H]5CC[C@@H](C4)N5)ccc2-3)o1` [Compound 206] yielded an IC50 (Target C) of 1 to 10 µM, an IC50 (HTT [1]) of 0.1 to 1 µM and an AC50 (HTT [1]) of 0.1 to 1 µM. It also gave an IC50 (HTT [2]) of 0.1 to 1 µM, an IC50 (SMN2) of 0.1 to 1 µM and an IC50 (MYB) of 0.1 to 1 µM.
`c1cc2c(cc1-c1cn[nH]c1)COc1nc(O[C@@H]3C[C@H]4CC[C@@H](C3)N4)ccc1-2` [Compound 218] showed an IC50 (Target C) of 0.1 to 1 µM, an IC50 (HTT [1]) of under 0.1 µM and an AC50 (HTT [1]) of under 0.1 µM. The IC50 (HTT [2]) was under 0.1 µM, the IC50 (SMN2) was under 0.1 µM and the IC50 (MYB) was 0.1 to 1 µM.
In the case of `COc1cc(-c2ccc3c(c2)COc2nc(N4CCC(NC5(C)CCC5)C4)ccc2-3)cnn1` (stereo not drawn) [Compound 285, 1-[8-(6-methoxypyridazin-4-yl)-6H-isochromeno[3,4-b]pyridin-3-yl]-N-(1-methylcyclobutyl)pyrrolidin-3-amine], the IC50 (Target C) is reported as 0.1 to 1 µM, the IC50 (HTT [1]) is reported as under 0.1 µM and the AC50 (HTT [1]) is reported as 0.1 to 1 µM. It also gave an IC50 (HTT [2]) of under 0.1 µM, an IC50 (SMN2) of under 0.1 µM and an IC50 (MYB) of 0.1 to 1 µM.
`CC(C)Oc1cnnc(-c2ccc3c(c2)COc2nc(N4CCC(NC(C)(C)C)C4)ccc2-3)c1` (stereo not drawn) [Compound 286] gave an IC50 (Target C) of over 10 µM, an IC50 (HTT [1]) of over 10 µM and an AC50 (HTT [1]) of over 10 µM. For the same molecule, the IC50 (HTT [2]) was over 10 µM, the IC50 (SMN2) was over 10 µM and the IC50 (MYB) was over 10 µM.
With `COc1cc(-c2ccc3c(c2)COc2nc(N4CCN[C@@H](C)C4)ccc2-3)cnn1` [Compound 287] the IC50 (Target C) was 1 to 10 µM, the IC50 (HTT [1]) was 0.1 to 1 µM and the AC50 (HTT [1]) was 0.1 to 1 µM. For the same molecule, the IC50 (HTT [2]) was 0.1 to 1 µM, the IC50 (SMN2) was 0.1 to 1 µM and the IC50 (MYB) was 1 to 10 µM.
Work on `COc1cc(-c2ccc3c(c2)COc2nc(O[C@@H]4C[C@H]5COC[C@@H](C4)N5)ccc2-3)cnn1` [Compound 290, (exo)-7-{[8-(6-methoxypyridazin-4-yl)-6H-isochromeno[3,4-b]pyridin-3-yl]oxy}-3-oxa-9-azabicyclo[3.3.1]nonane] yielded an IC50 (Target C) of 0.1 to 1 µM, an IC50 (HTT [1]) of under 0.1 µM and an AC50 (HTT [1]) of 0.1 to 1 µM. It also gave an IC50 (HTT [2]) of under 0.1 µM, an IC50 (SMN2) of under 0.1 µM and an IC50 (MYB) of 0.1 to 1 µM.
`COc1cc(-c2ccc3c(c2)COc2nc(N4CCC(N5CCCC5)C4)ccc2-3)cnn1` (stereo not drawn) [Compound 305] showed an IC50 (Target C) of 1 to 10 µM, an IC50 (HTT [1]) of 0.1 to 1 µM and an AC50 (HTT [1]) of 0.1 to 1 µM. For the same molecule, the IC50 (HTT [2]) was 0.1 to 1 µM, the IC50 (SMN2) was 0.1 to 1 µM and the IC50 (MYB) was 1 to 10 µM.
`COc1cc(-c2ccc3c(c2)COc2nc(N4CCC(N(C)C)C4)ccc2-3)cnn1` (stereo not drawn) [Compound 306, 1-[8-(6-methoxypyridazin-4-yl)-6H-isochromeno[3,4-b]pyridin-3-yl]-N,N-dimethylpyrrolidin-3-amine] was tested, and the IC50 (Target C) was 1 to 10 µM, the IC50 (HTT [1]) was 0.1 to 1 µM and the AC50 (HTT [1]) was 1 to 10 µM. For the same molecule, the IC50 (HTT [2]) was 0.1 to 1 µM, the IC50 (SMN2) was 0.1 to 1 µM and the IC50 (MYB) was 1 to 10 µM.
`COc1cc(-c2ccc3c(c2)COc2nc(N4CCC(N(C)C5CCC5)C4)ccc2-3)cnn1` (stereo not drawn) [Compound 307, N-cyclobutyl-1-[8-(6-methoxypyridazin-4-yl)-6H-isochromeno[3,4-b]pyridin-3-yl]-N-methylpyrrolidin-3-amine] showed an IC50 (Target C) of 0.1 to 1 µM, an IC50 (HTT [1]) of 0.1 to 1 µM and an AC50 (HTT [1]) of 0.1 to 1 µM. For the same molecule, the IC50 (HTT [2]) was 0.1 to 1 µM, the IC50 (SMN2) was under 0.1 µM and the IC50 (MYB) was 1 to 10 µM.

From patent publication US20240400584A1, “COMPOUNDS AND METHODS FOR MODULATING SPLICING” (REMIX THERAPEUTICS INC., priority 2021, published 2024)
